For one compound, IC50 results are on record in ChEMBL document CHEMBL5726454, “Protein tyrosine kinase modulators and methods of use” (2017).

The assay addresses ALK tyrosine kinase receptor (Homo sapiens, UniProt Q9UM73). Description: 2.5 uL-4x Test Compound or 100 nL 100x plus 2.4 uL kinase buffer; 2. 5 uL-2x Peptide/Kinase Mixture; 3. 2.5 uL-4xATP Solution; 4. 30-second plate shake; 5. 60-minute Kinase Reaction incubation at room temperature; 6. 5 uL-Development Reagent Solution; 7. 30-second plate shake; 8. 60-minute Development Reaction incubation at room temperature; 9. […] After the 1 hour Kinase Reaction incubation, 5 uL of a 1:256 dilution of Development Reagent B is added.

pIC50: −log10 of the molar value.

Chain of ALK tyrosine kinase receptor (Q9UM73 whole entry): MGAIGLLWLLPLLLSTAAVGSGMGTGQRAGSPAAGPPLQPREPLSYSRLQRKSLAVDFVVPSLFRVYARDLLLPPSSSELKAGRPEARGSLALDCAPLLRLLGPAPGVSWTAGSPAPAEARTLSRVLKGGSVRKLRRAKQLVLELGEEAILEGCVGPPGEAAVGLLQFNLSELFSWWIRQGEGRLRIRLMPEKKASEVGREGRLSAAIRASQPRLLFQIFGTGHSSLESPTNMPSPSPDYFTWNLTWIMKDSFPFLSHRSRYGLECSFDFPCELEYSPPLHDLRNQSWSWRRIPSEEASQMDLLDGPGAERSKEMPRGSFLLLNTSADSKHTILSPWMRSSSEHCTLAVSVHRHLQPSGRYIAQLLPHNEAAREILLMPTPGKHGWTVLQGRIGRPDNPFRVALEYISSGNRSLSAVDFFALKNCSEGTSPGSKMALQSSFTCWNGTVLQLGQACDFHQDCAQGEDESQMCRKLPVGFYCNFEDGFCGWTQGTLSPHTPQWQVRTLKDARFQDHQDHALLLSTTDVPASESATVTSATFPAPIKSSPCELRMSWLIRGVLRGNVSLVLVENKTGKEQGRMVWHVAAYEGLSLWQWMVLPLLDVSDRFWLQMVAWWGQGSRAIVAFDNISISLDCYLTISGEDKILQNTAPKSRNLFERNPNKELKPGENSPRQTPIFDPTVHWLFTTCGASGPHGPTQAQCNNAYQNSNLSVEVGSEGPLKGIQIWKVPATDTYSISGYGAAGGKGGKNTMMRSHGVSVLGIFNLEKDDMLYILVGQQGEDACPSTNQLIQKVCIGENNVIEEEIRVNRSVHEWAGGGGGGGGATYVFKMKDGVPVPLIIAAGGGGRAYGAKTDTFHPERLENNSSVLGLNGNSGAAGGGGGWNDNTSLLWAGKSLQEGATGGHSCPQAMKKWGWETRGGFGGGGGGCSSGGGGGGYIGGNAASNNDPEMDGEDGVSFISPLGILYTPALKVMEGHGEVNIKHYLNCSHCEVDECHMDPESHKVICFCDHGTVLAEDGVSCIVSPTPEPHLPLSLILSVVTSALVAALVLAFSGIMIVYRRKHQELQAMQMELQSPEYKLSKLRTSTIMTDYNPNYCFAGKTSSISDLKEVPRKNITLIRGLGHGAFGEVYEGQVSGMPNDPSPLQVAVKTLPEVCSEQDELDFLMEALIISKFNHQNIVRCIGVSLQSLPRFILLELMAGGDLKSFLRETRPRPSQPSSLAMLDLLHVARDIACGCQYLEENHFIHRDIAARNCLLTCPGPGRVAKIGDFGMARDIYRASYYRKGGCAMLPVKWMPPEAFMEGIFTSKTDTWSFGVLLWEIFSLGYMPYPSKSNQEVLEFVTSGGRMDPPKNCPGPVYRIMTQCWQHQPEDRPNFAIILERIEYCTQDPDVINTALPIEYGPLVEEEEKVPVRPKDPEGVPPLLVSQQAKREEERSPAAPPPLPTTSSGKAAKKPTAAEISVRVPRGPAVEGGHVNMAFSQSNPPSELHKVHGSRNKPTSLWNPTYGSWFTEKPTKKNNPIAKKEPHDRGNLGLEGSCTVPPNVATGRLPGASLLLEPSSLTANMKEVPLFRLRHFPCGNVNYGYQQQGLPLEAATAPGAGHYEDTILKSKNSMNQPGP

In general, pIC50 refers to the negative decadic logarithm of the IC50, by convention in mol/L. As for `COc1cc(N2CCC(N(C)C)CC2)ccc1Nc1ncc(Cl)c(Nc2ccccc2C(=O)C(N)=O)n1`, the pIC50 is 7.55.
